Assay results published in patent US20110009350A1, “Oil-in-Water Formulation of Avermectins” (priority 2005, published 2011).

Assays:
[1] = Stability of Abamectin in water at various pH-values and temperatures, kept in the dark, HPLC; format: physicochemical
Method: The stability of Abamectin in water at various pH-values and temperatures was determined. 194.4 mg of Abamectin was dissolved in 10 ml methanol and 1 ml of the solution transferred to 100 ml of de-mineralised water and a part of this was transferred to a buffer solution. The sample was kept in the dark and the solution analysed using a HPLC.

[2] = Stability of Abamectin in water exposed to light (5000-6000 lux) at 25° C., HPLC; format: physicochemical
Method: The stability of Abamectin in water exposed to light at various pH-values was determined. 194.4 mg of Abamectin was dissolved in 10 ml methanol and 1 ml of the solution transferred to 100 ml of demineralised water and a part of this transferred to a buffer solution. The solution was exposed to light (5000-6000 lux) at 25° C. and analysed using a HPLC.

## Abamectin
[1]; 25° C., 7 days, pH 4.0, dark
  Abamectin concentration (ppm): 3.130 ppm
[1]; 25° C., 7 days, pH 7.0, dark
  Abamectin concentration (ppm): 3.188 ppm
[1]; 25° C., 7 days, pH 9.0, dark
  Abamectin concentration (ppm): 3.005 ppm
[1]; 25° C., 14 days, pH 4.0, dark
  Abamectin concentration (ppm): 2.782 ppm
[1]; 25° C., 14 days, pH 7.0, dark
  Abamectin concentration (ppm): 3.040 ppm
[1]; 25° C., 14 days, pH 9.0, dark
  Abamectin concentration (ppm): 2.596 ppm
[1]; 25° C., 21 days, pH 4.0, dark
  Abamectin concentration (ppm): 2.566 ppm
[1]; 25° C., 21 days, pH 7.0, dark
  Abamectin concentration (ppm): 2.829 ppm
[1]; 25° C., 21 days, pH 9.0, dark
  Abamectin concentration (ppm): 2.380 ppm
[1]; 25° C., 28 days, pH 4.0, dark
  Abamectin concentration (ppm): 2.524 ppm
[1]; 25° C., 28 days, pH 7.0, dark
  Abamectin concentration (ppm): 2.676 ppm
[1]; 25° C., 28 days, pH 9.0, dark
  Abamectin concentration (ppm): 2.287 ppm
[1]; 25° C., Initial, pH 4.0, dark
  Abamectin concentration (ppm): 3.495 ppm
[1]; 25° C., Initial, pH 7.0, dark
  Abamectin concentration (ppm): 3.327 ppm
[1]; 25° C., Initial, pH 9.0, dark
  Abamectin concentration (ppm): 3.555 ppm
[1]; 50° C., 7 days, pH 4.0, dark
  Abamectin concentration (ppm): 1.054 ppm
[1]; 50° C., 7 days, pH 7.0, dark
  Abamectin concentration (ppm): 2.952 ppm
[1]; 50° C., 7 days, pH 9.0, dark
  Abamectin concentration (ppm): 1.265 ppm
[1]; 50° C., 14 days, pH 4.0, dark
  Abamectin concentration (ppm): 0.383 ppm
[1]; 50° C., 14 days, pH 7.0, dark
  Abamectin concentration (ppm): 2.780 ppm
[1]; 50° C., 14 days, pH 9.0, dark
  Abamectin concentration (ppm): 0.519 ppm
[1]; 50° C., 21 days, pH 4.0, dark
  Abamectin concentration (ppm): 0.123 ppm
[1]; 50° C., 21 days, pH 7.0, dark
  Abamectin concentration (ppm): 2.194 ppm
[1]; 50° C., 21 days, pH 9.0, dark
  Abamectin concentration (ppm): 0.205 ppm
[1]; 50° C., 28 days, pH 4.0, dark
  Abamectin concentration (ppm): 0.0609 ppm
[1]; 50° C., 28 days, pH 7.0, dark
  Abamectin concentration (ppm): 1.949 ppm
[1]; 50° C., 28 days, pH 9.0, dark
  Abamectin concentration (ppm): 0.0628 ppm
[1]; 50° C., Initial, pH 4.0, dark
  Abamectin concentration (ppm): 3.495 ppm
[1]; 50° C., Initial, pH 7.0, dark
  Abamectin concentration (ppm): 3.327 ppm
[1]; 50° C., Initial, pH 9.0, dark
  Abamectin concentration (ppm): 3.555 ppm
[2]; 7 days, pH 4.0
  Abamectin concentration (ppm): 2.923 ppm
[2]; 7 days, pH 7.0
  Abamectin concentration (ppm): 2.941 ppm
[2]; 7 days, pH 9.0
  Abamectin concentration (ppm): 3.163 ppm
[2]; 14 days, pH 4.0
  Abamectin concentration (ppm): 2.332 ppm
[2]; 14 days, pH 7.0
  Abamectin concentration (ppm): 2.529 ppm
[2]; 14 days, pH 9.0
  Abamectin concentration (ppm): 2.810 ppm
[2]; 21 days, pH 4.0
  Abamectin concentration (ppm): 1.961 ppm
[2]; 21 days, pH 7.0
  Abamectin concentration (ppm): 2.223 ppm
[2]; 21 days, pH 9.0
  Abamectin concentration (ppm): 2.360 ppm
[2]; 28 days, pH 4.0
  Abamectin concentration (ppm): 1.666 ppm
[2]; 28 days, pH 7.0
  Abamectin concentration (ppm): 2.034 ppm
[2]; 28 days, pH 9.0
  Abamectin concentration (ppm): 2.173 ppm
[2]; Initial, pH 4.0
  Abamectin concentration (ppm): 3.495 ppm
[2]; Initial, pH 7.0
  Abamectin concentration (ppm): 3.327 ppm
[2]; Initial, pH 9.0
  Abamectin concentration (ppm): 3.555 ppm
